Laboratory results as given in patent US12077503B2, “Substituted cyclic amides and their use as herbicides” (FMC CORPORATION, priority 2015, dated 2024).
Where two headings read alike, the source gives them in different places.

What was measured:
Assay type in all cases: in vivo
[1] = tested on: wheat (Triticum aestivum); assay: Test A postemergence; conditions: Triticum aestivum, post-emergence, 240 h, 125 g ai/ha, postemergence
Procedure, shortened: (§1)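 Preemergence soil spray on seeded pots or post-emergence spray on 1–2 leaf plants, in loam–sand blend. Greenhouse ~10 d. Visual rating 0–100 against untreated plants.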

corn (Zea mays) = assay: Test A postemergence; conditions: Zea mays, post-emergence, 240 h, 125 g ai/ha, postemergence
Procedure, shortened: as §1

[2] = tested on: ragweed (common ragweed, Ambrosia elatior); assay: Test A postemergence; conditions: Ambrosia artemisiifolia, post-emergence, 240 h, 125 g ai/ha, postemergence
Procedure, shortened: as §1

[3] = tested on: pigweed (Amaranthus retroflexus); assay: Test A postemergence; conditions: Amaranthus retroflexus, post-emergence, 240 h, 125 g ai/ha, postemergence
Procedure, shortened: as §1

[4] = tested on: blackgrass (Alopecurus myosuroides); assay: Test A postemergence; conditions: Alopecurus myosuroides, post-emergence, 240 h, 125 g ai/ha, postemergence
Procedure, shortened: as §1

[5] = tested on: barnyardgrass (Echinochloa crus-galli); assay: Test A postemergence; conditions: Echinochloa crus-galli, post-emergence, 240 h, 125 g ai/ha, postemergence
Procedure, shortened: as §1

[6] = tested on: Galium (catchweed bedstraw, Galium aparine); assay: Test A postemergence; conditions: Galium, post-emergence, 240 h, 125 g ai/ha, postemergence
Procedure, shortened: as §1

[7] = tested on: ryegrass, Italian (Italian ryegrass, Lolium multiflorum); assay: Test A postemergence; conditions: Lolium multiflorum, post-emergence, 240 h, 125 g ai/ha, postemergence
Procedure, shortened: as §1

Kochia (Kochia scoparia) [8] = assay: Test A postemergence; conditions: Bassia scoparia, post-emergence, 240 h, 125 g ai/ha, postemergence
Procedure, shortened: as §1

[9] = tested on: giant foxtail (Setaria faberii); assay: Test A postemergence; conditions: Setaria faberi, post-emergence, 240 h, 125 g ai/ha, postemergence
Procedure, shortened: as §1

[10] = tested on: ragweed (common ragweed, Ambrosia elatior); assay: Test A preemergence; conditions: Ambrosia artemisiifolia, pre-emergence, 240 h; for pest or weed control at 125 g/ha: 125 g ai/ha, preemergence, 0 to 100 scale where 0 is no effect and 100 is complete control; for pest or weed control at 500 g/ha: 500 g ai/ha, Preemergence, visual injury vs untreated controls after approximately 10 d, read-out: Ragweed plant response rating (0 to 100 scale where 0 is no effect and 100 is complete control)
Procedure, shortened: as §1

[11] = tested on: pigweed (Amaranthus retroflexus); assay: Test A preemergence; conditions: Amaranthus retroflexus, pre-emergence, 240 h; for pest or weed control at 125 g/ha: 125 g ai/ha, preemergence, 0 to 100 scale where 0 is no effect and 100 is complete control; for pest or weed control at 500 g/ha: 500 g ai/ha, Preemergence, visual injury vs untreated controls after approximately 10 d, read-out: Pigweed plant response rating (0 to 100 scale where 0 is no effect and 100 is complete control)
[12] = tested on: barnyardgrass (Echinochloa crus-galli); assay: Test A preemergence; conditions: Echinochloa crus-galli, pre-emergence, 240 h; for pest or weed control at 125 g/ha: 125 g ai/ha, preemergence, 0 to 100 scale where 0 is no effect and 100 is complete control; for pest or weed control at 500 g/ha: 500 g ai/ha, Preemergence, visual injury vs untreated controls after approximately 10 d, read-out: Barnyardgrass plant response rating (0 to 100 scale where 0 is no effect and 100 is complete control)
Procedure, shortened: as §1

[13] = tested on: ryegrass, Italian (Italian ryegrass, Lolium multiflorum); assay: Test A preemergence; conditions: Lolium multiflorum, pre-emergence, 240 h; for pest or weed control at 125 g/ha: 125 g ai/ha, preemergence, 0 to 100 scale where 0 is no effect and 100 is complete control; for pest or weed control at 500 g/ha: 500 g ai/ha, Preemergence, visual injury vs untreated controls after approximately 10 d, read-out: Ryegrass, Italian plant response rating (0 to 100 scale where 0 is no effect and 100 is complete control)
Procedure, shortened: as §1

Kochia (Kochia scoparia) [14] = assay: Test A preemergence; conditions: Bassia scoparia, pre-emergence, 240 h; for pest or weed control at 500 g/ha: 500 g ai/ha, Preemergence, visual injury vs untreated controls after approximately 10 d, read-out: Kochia plant response rating (0 to 100 scale where 0 is no effect and 100 is complete control)
Procedure, shortened: as §1

[15] = tested on: giant foxtail (Setaria faberii); assay: Test A preemergence; conditions: Setaria faberi, pre-emergence, 240 h; for pest or weed control at 125 g/ha: 125 g ai/ha, preemergence, 0 to 100 scale where 0 is no effect and 100 is complete control; for pest or weed control at 500 g/ha: 500 g ai/ha, Preemergence, visual injury vs untreated controls after approximately 10 d, read-out: Foxtail, Giant plant response rating (0 to 100 scale where 0 is no effect and 100 is complete control)
Procedure, shortened: as §1

## CN1C[C@H](c2cc(F)c(C(F)(F)F)c(F)c2)[C@@H](C(=O)Nc2ccccc2F)C1=O [Compound 899]
[1]; visual injury rating after approximately 10 d, read-out: Wheat plant response rating (0 to 100 scale, 0 no effect, 100 complete control)
  plant injury at 125 g/ha: 30%
Corn (Zea mays); visual injury rating after approximately 10 d, read-out: Corn plant response rating (0 to 100 scale, 0 no effect, 100 complete control)
  plant injury at 125 g/ha: 40%
[2]; visual injury rating after approximately 10 d, read-out: Ragweed plant response rating (0 to 100 scale, 0 no effect, 100 complete control)
  pest or weed control at 125 g/ha: 20%
[3]; visual injury rating after approximately 10 d, read-out: Pigweed plant response rating (0 to 100 scale, 0 no effect, 100 complete control)
  pest or weed control at 125 g/ha: 0%
[4]; visual injury rating after approximately 10 d, read-out: Blackgrass plant response rating (0 to 100 scale, 0 no effect, 100 complete control)
  pest or weed control at 125 g/ha: 40%
[5]; visual injury rating after approximately 10 d, read-out: Barnyardgrass plant response rating (0 to 100 scale, 0 no effect, 100 complete control)
  pest or weed control at 125 g/ha: 80%
[6]; visual injury rating after approximately 10 d, read-out: Galium plant response rating (0 to 100 scale, 0 no effect, 100 complete control)
  pest or weed control at 125 g/ha: 0%
[7]; visual injury rating after approximately 10 d, read-out: Ryegrass, Italian plant response rating (0 to 100 scale, 0 no effect, 100 complete control)
  pest or weed control at 125 g/ha: 30%
Kochia (Kochia scoparia) [8]; visual injury rating after approximately 10 d, read-out: Kochia plant response rating (0 to 100 scale, 0 no effect, 100 complete control)
  pest or weed control at 125 g/ha: 0%
[9]; visual injury rating after approximately 10 d, read-out: Foxtail, Giant plant response rating (0 to 100 scale, 0 no effect, 100 complete control)
  pest or weed control at 125 g/ha: 90%
[10]; read-out: Ragweed plant response rating
  pest or weed control at 125 g/ha: 20%
[10]
  pest or weed control at 500 g/ha: 60%
[11]; read-out: Pigweed plant response rating
  pest or weed control at 125 g/ha: 20%
[11]
  pest or weed control at 500 g/ha: 40%
[12]; read-out: Barnyardgrass plant response rating
  pest or weed control at 125 g/ha: 90%
[12]
  pest or weed control at 500 g/ha: 90%
[13]; read-out: Ryegrass, Italian plant response rating
  pest or weed control at 125 g/ha: 30%
[13]
  pest or weed control at 500 g/ha: 20%
Kochia (Kochia scoparia) [14]
  pest or weed control at 500 g/ha: 70%
[15]; read-out: Foxtail, Giant plant response rating
  pest or weed control at 125 g/ha: 90%
[15]
  pest or weed control at 500 g/ha: 90%

## CC(F)(F)c1cccc([C@H]2CNC(=O)[C@@H]2C(=O)Nc2ccc(F)cc2F)c1 [Compound 781]
[1]; visual injury after approximately 10 d, 0 to 100 scale (0 no effect, 100 complete control), read-out: Plant response rating, Wheat
  plant injury at 125 g/ha: 50%
Corn (Zea mays); visual injury after approximately 10 d, 0 to 100 scale (0 no effect, 100 complete control)
  Corn plant response rating (crop injury, 0 = no effect, 100 = complete kill) at 125 g/ha: 60%
[2]; visual injury after approximately 10 d, 0 to 100 scale (0 no effect, 100 complete control), read-out: Plant response rating, Ragweed
  pest or weed control at 125 g/ha: 0%
[3]; visual injury after approximately 10 d, 0 to 100 scale (0 no effect, 100 complete control), read-out: Plant response rating, Pigweed
  pest or weed control at 125 g/ha: 0%
[4]; visual injury after approximately 10 d, 0 to 100 scale (0 no effect, 100 complete control), read-out: Plant response rating, Blackgrass
  pest or weed control at 125 g/ha: 70%
[5]; visual injury after approximately 10 d, 0 to 100 scale (0 no effect, 100 complete control), read-out: Plant response rating, Barnyardgrass
  pest or weed control at 125 g/ha: 90%
[6]; visual injury after approximately 10 d, 0 to 100 scale (0 no effect, 100 complete control), read-out: Plant response rating, Galium
  pest or weed control at 125 g/ha: 60%
[7]; visual injury after approximately 10 d, 0 to 100 scale (0 no effect, 100 complete control), read-out: Plant response rating, Ryegrass, Italian
  pest or weed control at 125 g/ha: 20%
Kochia (Kochia scoparia) [8]; visual injury after approximately 10 d, 0 to 100 scale (0 no effect, 100 complete control), read-out: Plant response rating, Kochia
  pest or weed control at 125 g/ha: 0%
[9]; visual injury after approximately 10 d, 0 to 100 scale (0 no effect, 100 complete control), read-out: Plant response rating, Foxtail, Giant
  pest or weed control at 125 g/ha: 80%
[10]; visual rating after approx. 10 d, read-out: Plant response rating, Ragweed
  pest or weed control at 125 g/ha: 0%
[10]
  pest or weed control at 500 g/ha: 0%
[11]; visual rating after approx. 10 d, read-out: Plant response rating, Pigweed
  pest or weed control at 125 g/ha: 0%
[11]
  pest or weed control at 500 g/ha: 70%
[12]; visual rating after approx. 10 d, read-out: Plant response rating, Barnyardgrass
  pest or weed control at 125 g/ha: 80%
[12]
  pest or weed control at 500 g/ha: 100%
[13]; visual rating after approx. 10 d, read-out: Plant response rating, Ryegrass, Italian
  pest or weed control at 125 g/ha: 20%
[13]
  pest or weed control at 500 g/ha: 50%
Kochia (Kochia scoparia) [14]; 125 g ai/ha, preemergence, visual rating after approx. 10 d, 0 to 100 scale where 0 is no effect and 100 is complete control, read-out: Plant response rating, Kochia
  pest or weed control at 125 g/ha: 50%
Kochia (Kochia scoparia) [14]
  pest or weed control at 500 g/ha: 90%
[15]; visual rating after approx. 10 d, read-out: Plant response rating, Foxtail, Giant
  pest or weed control at 125 g/ha: 90%
[15]
  pest or weed control at 500 g/ha: 100%
